Laboratory results published in patent EP0198605A1, “Prophylaxis of pharmacotherapy of liver disorders” (TEIJIN LIMITED, priority 1985, dated 1986).
Like-named read-outs stand apart in the source and are kept apart here.

Key:
[1] = system: hepatic necrocytosis induced by carbon tetrachloride; experiment: Hepatic necrocytosis induced by carbon tetrachloride (in vivo), serum GOT and GPT; set-up: species or system SD male rats; settings: for Enzyme Activity GOT (U/L) / Enzyme Activity GPT (U/L): 6 administrations, CCl4 0.5 ml/kg i.p.; for inhibiting liver necrocytosis induced by CCl4 (result in words): in vivo, summary of Tables 4 to 6
Experimental: In the evaluation tests, 6 weeks old SD male rats were used. […] The rats were freely fed or supplied with a solid feed and drinking water.
Carbon tetrachloride (CC14) was diluted with an olive oil and was peritoneally injected in each rat at a dosage of 0.5 ml/kg. To the control group, only CC14 diluted with the olive oil and a 5% gum arabic solution containing no active ingredient were administered. Furthermore, only the olive oil but no CC14 was administered to the olive oil injection group in the Tables.
The methincyanine compounds listed in Tables 4 to 6 were administered as follows. Methincyanine compounds were diluted 100 times with dextrose dissolved in 5% gum arabic solutions. The administration schedules were such that the methiocyanine compounds were administered 6 times in total from 5 days before the CC14 injection to the day of the injection.
Blood was sampled from the orbital veniplex of the rat and was allowed to stand at room temperature for one hour. The blood sample was then centrifugally separated at 2800 rpm for 10 minutes. The resultant supernatant was used as a serum sample.
The determination of GOT and GPT in the serum sample was carried out by using a determination kit (available from Boeklinger-Yamanouchi Co.) and the results were recorded in an automatic analyzer (available from FLEXIGEM Co.).

[2] = system: hepatic disorders induced by D-galactosamine; experiment: Hepatic disorders induced by D-galactosamine in rats (serum GOT, GPT, bilirubin, complement value); type: in vivo, Wister male rats; settings: DSCG i.p. 1 mg/kg, GalN 250 mg/kg i.p., serum two days after GalN
Experimental: In the evaluation tests, 8 to 9 weeks old Wister male rats were used. Five rats were used in each test group. The rats were given standard chow and water ad libitum.
D-Galactosamine hydrochloride (GalN) was dissolved in sterilized physiological saline and the pH thereof was adjusted to 7. The resultant solution was peritoneally administered to each rat at a dosage of 250 mg/kg. To one control group, only GalN was injected, and physiological saline was administered to the other control group instead of pionin. Furthermore, only physiological saline but no GaIN was injected to the physiological saline administration group.
The pionin was administered as follows. It is diluted 10, 100, and 1000 times with dextrose and these diluted powders were dissolved in saline. All drugs were intravenously or orally administered at doses of 0.1, 0.5, 1, and 10 pg/kg. The administration was carried out from five days before to the day after the GaIN injection.
The rats were killed two days after the injection of GalN and blood was collected. The blood samples were allowed to stand at room temprature for one hour and serum was then centrifugally separated at 2500 rpm for 10 minutes.
The determination of GOT and GPT in the serum samples was carried out according to a modification of the Reitman-Framkel method [see Amir. J. Clin. Pothil. 28, 56 (1957) and J. Clin. Invest. 34, 131 (1955)], the determination of bilirubin was carried out according to a modification of Jendrassik-Grof method [see Clinical Chemistry, 19, 984-993 (1973)], and the determination of the complement value was carried out according to the Mayer method (see Experimental Immunochemistry, 2, 133-240, 1961).
The results are shown in Table 2 (i.e., intravenous administration of pionin) and Table 3 (i.e., oral administration of pionin). Disodium cromoglycate (i.e., DSCG) was used as a control.

[3] = system: hepatic disorders induced by D-galactosamine; experiment: as above; type: in vivo, Wister male rats; settings: for Bilirubin / Complement value (%) / Enzyme activity GOT (K.U.) / Enzyme activity GPT (K.U.): GalN 250 mg/kg i.p., serum two days after GalN
rat liver cells = experiment: Hepatic necrocytosis induced by carbon tetrachloride (in vitro), trypan blue exclusion test; type: cell-based
Experimental: Liver cells were prepared according to a method disclosed in Nakamura et al "Proteins, Nucleic Acids, and Enzymes" Vol. 24, pages 55-76 (1981). That is, the rat liver cells, which were previously peritoneally treated with phenobarbital at 80 mg/kg/day for 3 days, were collected by centrifugal separation after being subjected to 0.05% collagenase perfusion.
The liver cells thus obtained were suspended in a William's E culture medium containing 10% fetal calf serum, dexamethasone (10^-6 M) and insulin (0.02 unit/ml). A 3 ml amount of the cell dispersion having a cell content of 5 x 10^S cells/ml was placed in a 25 mm Falcon dish and was then incubated at a temperature of 37°C under an atmosphere of 5% C02 and 95% air for 3 hours. After 3 hours incubation, the number of surviving liver cells in the incubated dish was measured according to a trypan blue exclusion test. The average value thereof was used as a control value for the survival percentage of the liver cells in the pre-incubation.
Then, a culture medium containing 2-[2-(3-heptyl-4-methyl-4-thiazolin-2-ylidene) methyll-3-heptyl thiazolinium iodide (i.e., pionin) dissolved in ethanol was substituted after removing non-adhesive cells and was then incubated for a further one hour. The concentrations of pionin in the culture medium were 0.94 x 10^-6, 1.8x10^-7, 1x10^-8, 1x10^-9, and I x 10^-10 mole and, as a control or comparative test, the culture medium itself, the culture medium containing 0.5% of ethanol, and the culture medium containing 0.25 µm/ml of carbon tetrachloride were used.
Then, 0.25 pm/ml of carbon tetrachloride was added to each culture dish and the incubation was carried out for a further 3 hours under the same conditions mentioned above. No further carbon tetrachloride was added to the comparative culture containing carbon tetrachloride. After 3 hours incubation, the number of survival liver cells was measured according to a trypan blue exclusion test. The percentage ratio of the mean survival number to the survival number of the above-mentioned pre-incubation was then calculated.
The results are shown in Table 1, in which the mean survival cell percentage (%) and standard deviation thereof in the culture dish containing 4 to 29 liver cells (i.e., N). Statistical significance was evaluated by Student's t-test.

rats = settings: oral, cited from earlier work
[4] = Table 2 experiment, DSCG i.p. 1 mg/kg
[5] = Table 3 experiment, DSCG i.p. 1 mg/kg
[6] = Table 2, intravenous, 0.1 µg/kg
[7] = Table 2, intravenous, 0.5 µg/kg

Compound: CCCCCCCCCCCCN1C(C)=CSC1=Cc1scc(C)[n+]1CCCC [Compound of Example 1, 2-[2-(3-dodecyl-4-methyl-4-thiazolin-2-ylidene)methyl]-3-butyl-4-methyl thiazolinium iodide]
- Enzyme Activity GOT (U/L) ([1]; Table 6, oral, 10 µg/kg): 627 ± 92 U/L
- Enzyme Activity GPT (U/L) ([1]; Table 6, oral, 10 µg/kg): 198 ± 37 U/L
- inhibiting liver necrocytosis induced by CCl4 (result in words) [1]: strong inhibiting activities against liver necrocytosis induced by CC14 when compared with pionin

Compound: CCCCCCCCCCCCN1C(C)=CSC1=Cc1scc(C)[n+]1CC [Compound of Example 3, 2-[2-(3-dodecyl-4-methyl-4-thiazolin-2-ylidene)methyl]-3-ethyl-4-methyl thiazolinium iodide]
- Enzyme Activity GOT (U/L) ([1]; Table 5, oral, 10 µg/kg): 435 ± 67 U/L
- Enzyme Activity GPT (U/L) ([1]; Table 5, oral, 10 µg/kg): 107 ± 18 U/L

Compound: CCCCCCC[n+]1cc(C)sc1C=C1SC=C(C)N1CCCC [Compound of Example 4, 2-[2-(3-butyl-4-methyl-4-thiazolin-2-ylidene)methyl]-3-heptyl-5-methyl thiazolinium iodide]
- Enzyme Activity GOT (U/L) ([1]; Table 5, oral, 10 µg/kg): 386 ± 50 U/L
- Enzyme Activity GPT (U/L) ([1]; Table 5, oral, 10 µg/kg): 118 ± 21 U/L

Compound: CCCCCCC[n+]1c(C=C2SC=C(C)N2CCCC)sc(C)c1C [Compound of Example 5, 2-[2-(3-butyl-4-methyl-4-thiazolin-2-ylidene)methyl]-3-heptyl-4,5-dimethyl thiazolinium iodide]
- Enzyme Activity GOT (U/L) ([1]; Table 5, oral, 10 µg/kg): 393 ± 59 U/L
- Enzyme Activity GPT (U/L) ([1]; Table 5, oral, 10 µg/kg): 135 ± 29 U/L

Compound: CCCCCCCCCCN1C(C)=CSC1=Cc1scc(C)[n+]1CCCC [Compound of Example 8, 2-[2-(3-decyl-4-methyl-4-thiazolin-2-ylidene)methyl]-3-butyl-4-methylthiazolinium iodide]
- Enzyme Activity GOT (U/L) ([1]; Table 5, oral, 10 µg/kg): 310 ± 68 U/L
- Enzyme Activity GPT (U/L) ([1]; Table 5, oral, 10 µg/kg): 99 ± 27 U/L

Compound: O=C(O)c1cc(=O)c2c(OCC(O)COc3cccc4oc(C(=O)O)cc(=O)c34)cccc2o1 [DSCG, Disodium cromoglycate, reference compound]
- Enzyme activity GPT (K.U.) ([2]; Table 2 experiment): 220 ± 20 K.U.
- Bilirubin ([2]; Table 3 experiment): 0.21 mg/dL
- Enzyme activity GOT (K.U.) ([2]; Table 3 experiment): 480 ± 50 K.U.
- Bilirubin [3, 4]: 0.29 mg/dL
- Complement value (%) [3, 4]: 88.4%
- Enzyme activity GOT (K.U.) [3, 4]: 400 ± 42 K.U.
- Complement value (%) [3, 5]: 80.4%
- Enzyme activity GPT (K.U.) [3, 5]: 230 ± 33 K.U.

Compound: CCCCCCCN1C(C)=CSC1=Cc1scc(C)[n+]1CCCCCCC [Pionin, 2-[2-(3-heptyl-4-methyl-4-thiazolin-2-ylidene)methyl]-3-heptyl-4-methyl thiazolinium iodide]
- viability at 0.94 µM (rat liver cells; Rattus norvegicus, CCl4 + Pionin 0.94 x 10^-6 M, 3 hours after CCl4, mean ± standard deviation, read-out: Survival ratio (%)): 43.6 ± 11.6%
- viability at 0.01 µM (rat liver cells; Rattus norvegicus, CCl4 + Pionin 1 x 10^-8 M, 3 hours after CCl4, mean ± standard deviation, read-out: Survival ratio (%)): 63.5 ± 19%
- viability at 0.001 µM (rat liver cells; Rattus norvegicus, CCl4 + Pionin 1 x 10^-9 M, 3 hours after CCl4, mean ± standard deviation, read-out: Survival ratio (%)): 63.4 ± 6.8%
- viability at 0.0001 µM (rat liver cells; Rattus norvegicus, CCl4 + Pionin 1 x 10^-10 M, 3 hours after CCl4, mean ± standard deviation, read-out: Survival ratio (%)): 63.2 ± 23%
- viability at 0.18 µM (rat liver cells; Rattus norvegicus, CCl4 + Pionin 1.8 x 10^-7 M, 3 hours after CCl4, mean ± standard deviation, read-out: Survival ratio (%)): 47.1 ± 8.1%
- inhibiting liver necrocytosis (result in words) (rat liver cells; in vitro, summary of Table 1): has an activity capable of inhibiting liver necrocytosis
- Enzyme Activity GOT (U/L) ([1]; Table 4, oral, 1 µg/kg): 678.3 ± 76.5 U/L
- Enzyme Activity GPT (U/L) ([1]; Table 4, oral, 1 µg/kg): 209.0 ± 31.2 U/L
- Enzyme Activity GOT (U/L) ([1]; Table 4, oral, 3 µg/kg): 754.5 ± 108.8 U/L
- Enzyme Activity GPT (U/L) ([1]; Table 4, oral, 3 µg/kg): 269.7 ± 50.3 U/L
- Enzyme Activity GOT (U/L) ([1]; Table 4, oral, 10 µg/kg): 559.2 ± 56.6 U/L
- Enzyme Activity GPT (U/L) ([1]; Table 4, oral, 10 µg/kg): 165.8 ± 25.9 U/L
- Enzyme Activity GOT (U/L) ([1]; Table 4, oral, 30 µg/kg): 946.8 ± 110.6 U/L
- Enzyme Activity GPT (U/L) ([1]; Table 4, oral, 30 µg/kg): 311.4 ± 49.4 U/L
- Enzyme Activity GOT (U/L) ([1]; Table 6, oral, 10 µg/kg): 807 ± 172 U/L
- Enzyme Activity GPT (U/L) ([1]; Table 6, oral, 10 µg/kg): 251 ± 83 U/L
- inhibiting liver necrocytosis induced by CCl4 (result in words) [1]: has an activity capable of inhibiting liver necrocytosis induced by CCl4
- LD50 (rats; female rats): 503 mg/kg
- LD50 (rats; male rats): 460 mg/kg
- Bilirubin [3, 6]: 0.51 mg/dL
- Complement value (%) [3, 6]: 88.2%
- Enzyme activity GOT (K.U.) [3, 6]: 550 ± 160 K.U.
- Enzyme activity GPT (K.U.) [3, 6]: 510 ± 62 K.U.
- Bilirubin [3, 7]: 0.35 mg/dL
- Complement value (%) [3, 7]: 96.6%
- Enzyme activity GOT (K.U.) [3, 7]: 420 ± 30 K.U.
- Enzyme activity GPT (K.U.) [3, 7]: 300 ± 55 K.U.
- Bilirubin ([3]; Table 2, intravenous, 1 µg/kg): 0.44 mg/dL
- Complement value (%) ([3]; Table 2, intravenous, 1 µg/kg): 91.2%
- Enzyme activity GOT (K.U.) ([3]; Table 2, intravenous, 1 µg/kg): 780 ± 29 K.U.
- Enzyme activity GPT (K.U.) ([3]; Table 2, intravenous, 1 µg/kg): 600 ± 40 K.U.
- Bilirubin ([3]; Table 2, intravenous, 10 µg/kg): 0.77 mg/dL
- Complement value (%) ([3]; Table 2, intravenous, 10 µg/kg): 87.6%
- Enzyme activity GOT (K.U.) ([3]; Table 2, intravenous, 10 µg/kg): 1036 ± 50 K.U.
- Enzyme activity GPT (K.U.) ([3]; Table 2, intravenous, 10 µg/kg): 980 ± 39 K.U.
- Bilirubin ([3]; Table 3, oral, 0.1 µg/kg): 0.77 mg/dL
- Complement value (%) ([3]; Table 3, oral, 0.1 µg/kg): 86.1%
- Enzyme activity GOT (K.U.) ([3]; Table 3, oral, 0.1 µg/kg): 1200 ± 198 K.U.
- Enzyme activity GPT (K.U.) ([3]; Table 3, oral, 0.1 µg/kg): 1003 ± 87 K.U.
- Bilirubin ([3]; Table 3, oral, 0.5 µg/kg): 0.36 mg/dL
- Complement value (%) ([3]; Table 3, oral, 0.5 µg/kg): 91.1%
- Enzyme activity GOT (K.U.) ([3]; Table 3, oral, 0.5 µg/kg): 622 ± 100 K.U.
- Enzyme activity GPT (K.U.) ([3]; Table 3, oral, 0.5 µg/kg): 550 ± 51 K.U.
- Bilirubin ([3]; Table 3, oral, 1 µg/kg): 0.55 mg/dL
- Complement value (%) ([3]; Table 3, oral, 1 µg/kg): 92.3%
- Enzyme activity GOT (K.U.) ([3]; Table 3, oral, 1 µg/kg): 710 ± 30 K.U.
- Enzyme activity GPT (K.U.) ([3]; Table 3, oral, 1 µg/kg): 440 ± 13 K.U.
- Bilirubin ([3]; Table 3, oral, 10 µg/kg): 0.88 mg/dL
- Complement value (%) ([3]; Table 3, oral, 10 µg/kg): 88.8%
- Enzyme activity GOT (K.U.) ([3]; Table 3, oral, 10 µg/kg): 1350 ± 136 K.U.
- Enzyme activity GPT (K.U.) ([3]; Table 3, oral, 10 µg/kg): 1200 ± 188 K.U.
- inhibition of liver disorders induced by D-galactosamine (result in words) ([3]; summary of Tables 2 and 3): can inhibit liver disorders induced by D-galactosamine
